Test results: US7041698B2, “Hepatitis C virus inhibitors” (Bristol-Myers Squibb Company, priority 2002, dated 2006)

Assays:
[1] = molecular target: T1, HCV NS3/4A protease complex (UniProt P27958, C1454S/C1711G, species not given); test: Recombinant HCV NS3/4A protease complex FRET peptide assay (strain not stated); assay type: biochemical; settings: HCV NS3/4A protease enzyme assay, read-out: IC50 range
T1 construct: fused on or other part: Three-lysine solubilising tail at the C-terminus of NS4A

[2] = tested on: HCV replicon in Huh7 cells; test: HCV replicon cell-based assay; set-up: species or system HCV strain 1B; settings: Hepatitis C virus, Huh-7, 96 h, HCV replicon, 4 days, read-out: EC50 range
Excerpt: HCV Replicon Cell-based Assay
An HCV replicon whole cell system was established as described by Lohmann V, Komer F, Koch J, Herian U, Theilmann L, Bartenschlager R., Science 285(5424):110–3 (1999). This system enabled us to evaluate the effects of our HCV Protease compounds on HCV RNA replication. Briefly, using the HCV strain 1B sequence described in the Lohmann paper (Assession number:AJ238799), an HCV cDNA was generated encoding the 5′ internal ribosome entry site (IRES), the neomycin resistance gene, the EMCV (encephalomyocarditis viurs)-IRES and the HCV nonstructural proteins, NS3-NS5B, and 3′ non-translated region (NTR). In vitro transcripts of the cDNA were transfected into the human hepatoma cell line, Huh7. […] Resulting cell lines were characterized for positive and negative strand RNA production and protein production over time.
Huh7 cells, constitutively expressing the HCV replicon, were grown in Dulbecco's Modified Eagle Media (DMEM) containing 10% Fetal calf serum (FCS) and 1 mg/ml G418 (Gibco-BRL). Cells were seeded the night before (1.5×10^4 cells/well) in 96-well tissue-culture sterile plates. Compound and no compound controls were prepared in DMEM containing 4% FCS, 1:100 Penicillin/Streptomysin, 1:100 L-glutamine and 5% DMSO in the dilution plate (0.5% DMSO final concentration in the assay). Compound/DMSO mixes were added to the cells and incubated for 4 days at 37° C. After 4 days, plates were rinsed thoroughly with Phosphate-Buffered Saline (PBS) (3 times 150 μl). The cells were lysed with 25 μl of a lysis assay reagent containing the FRET peptide (RET S1, as described for the in vitro enzyme assay). The lysis assay reagent was made from 5× cell Luciferase cell culture lysis reagent (Promega #E153A) diluted to 1× with distilled water, NaCl added to 150 mM final, the FRET peptide diluted to 10 μM final from a 2 mM stock in 100% DMSO. The plate was then placed into the Cytofluor 4000 instrument which had been set to 340 nm excitation/490 emission, automatic mode for 21 cycles and the plate read in a kinetic mode. EC50 determinations were carried out as described for the IC50 determinations.
As a secondary assay, EC50 determinations from the replicon FRET assay were confirmed in a quantitative RNA assay. Cells were lyzed using the Rneasy kit (Qiagen). Purified total RNA was normalized using RiboGreen (Jones L J, Yue S T, Cheung C Y, Singer V L, Anal. Chem., 265(2):368–74 (1998)) and relative quantitation of HCV RNA expression assessed using the Taqman procedure (Kolykhalov A A, Mihalik K, Feinstone S M, Rice C M, Journal of Virology 74, 2046–2051 (2000)) and the Platinum Quantitative RT-PCR Thermoscript One-Step kit (Invitrogen cat # 11731-015). Briefly, RNA made to a volume of 5 μl (<1 ng) was added to a 20 μl Ready-Mix containing the following: 1.25× Thermoscript reaction mix (containing Magnesium Sulfate and 2-deoxynucleoside 5′-triphosphates (dNTPs)), 3 mM dNTPs, 200 nM forward primer (sequence: 5′-[…]-3′), 600 nM reverse primer (5′-[…]-3′), 100 nM probe (5′-6-FAM-[…]-BHQ-1-3′)(FAM: Fluorescein-aminohexyl amidite; BHQ: Black Hole Quencher), 1 μM Rbx reference dye (Invitrogen cat # 12223-012) and Thermoscript Plus Platinum Taq polymerase mixture. All primers were designed with ABI Prism 7700 software and obtained from Biosearch Technologies, Novato, Calif. Samples containing known concentrations of HCV RNA transcript were run as standards. Using the following cycling protocol (50° C., 30 min; 95° C., 5 min; 40 cycles of 95° C., 15 sec, 60° C., 1 min), HCV RNA expression was quantitated as described in the Perkin Elmer manual using the ABI Prism 7700 Sequence Detector.
The luciferase reporter assay was also used to confirm compound potency in the replicon. Utilization of a replicon luciferase reporter assay was first described by Krieger et al (Krieger N, Lohmann V, and Bartenschlager R, J. Virol. 75(10):4614–4624 (2001)). […]

| SMILES | IC50 [1] | EC50 [2] |
| --- | --- | --- |
| C=CC1C[C@]1(NC(=O)[C@@H]1C[C@@H](OC(=O)Nc2cc(C(F)(F)F)ccc2N2CCCC2)CN1C(=O)[C@@H](NC(=O)OC(C)(C)C)C(C)(C)C)C(=O)NS(=O)(=O)C1CC1 (stereo partly drawn) [Compound 84, BocNH-P3(t-BuGly)-P2(Hyp(O—CO(NH—(2-Pyrrolidin-1-yl-5-trifluoromethyl-phenyl))))-P1(1R,2S VinylAcca)—CONHSO2Cyclopropane] | < 0.1 µM | 0.1 to 1 µM |
| C=CC1C[C@]1(NC(=O)[C@@H]1C[C@@H](OC(=O)Nc2ccccc2-n2nc3cc(OC)c(OC)cc3n2)CN1C(=O)[C@@H](NC(=O)OC(C)(C)C)C(C)(C)C)C(=O)NS(=O)(=O)C1CC1 (stereo partly drawn) [Compound 87, BocNH-P3(t-BuGly)-P2(Hyp(O—CO(NH—(2-(5,6-Dimethoxy-benzotriazol-2-yl)-phenyl))))-P1(1R,2S VinylAcca)—CONHSO2Cyclopropane] | < 0.1 µM | < 0.1 µM |
| C=CC1C[C@]1(NC(=O)[C@@H]1C[C@@H](OC(=O)Nc2cccc(Cl)c2Cl)CN1C(=O)[C@@H](NC(=O)OC(C)(C)C)C(C)(C)C)C(=O)NS(=O)(=O)C1CC1 (stereo partly drawn) [Compound 31, BocNH-P3(t-BuGly)-P2(Hyp(O—CO(NH—(2,3-dichloro-phenyl))))-P1(1R,2S VinylAcca)—CONHSO2Cyclopropane] | < 0.1 µM | 0.1 to 1 µM |
| C=C[C@@H]1C[C@]1(NC(=O)[C@@H]1C[C@@H](OC(=O)Nc2cc(C(F)(F)F)ccc2-n2cccn2)CN1C(=O)[C@@H](NC(=O)OC(C)(C)C)C(C)(C)C)C(=O)NS(=O)(=O)C1CC1 [Compound 100, BocNH-P3(t-BuGly)-P2(Hyp(O—CO(NH—(5-trifluoromethyl-2-pyrazol-1-yl-phenyl))))-P1(1R,2S VinylAcca)—CONHSO2Cyclopropane] | < 0.1 µM | < 0.1 µM |
| C=CC1C[C@]1(NC(=O)[C@@H]1C[C@@H](OC(=O)Nc2ccc(OC)cc2[N+](=O)[O-])CN1C(=O)[C@@H](NC(=O)OC(C)(C)C)C(C)(C)C)C(=O)NS(=O)(=O)C1CC1 (stereo partly drawn) [Compound 41, BocNH-P3(t-BuGly)-P2(Hyp(O—CO(NH—(4-Methoxy-2-nitro-phenyl))))-P1(1R,2S VinylAcca)—CONHSO2Cyclopropane] | < 0.1 µM | 1 to 10 µM |
| C=CC1C[C@]1(NC(=O)[C@@H]1C[C@@H](OC(=O)Nc2sc3c(c2C(=O)OCC)CCCC3)CN1C(=O)[C@@H](NC(=O)OC(C)(C)C)C(C)(C)C)C(=O)NS(=O)(=O)C1CC1 (stereo partly drawn) [Compound 49, BocNH-P3(t-BuGly)-P2(Hyp(O—CO(NH-2-(4,5,6,7-tetrahydro-benzo[b]thiophene-3-carboxylic acid ethyl ester))))-P1(1R,2S VinylAcca)—CONHSO2Cyclopropane] | 0.1 to 1 µM | 1 to 10 µM |
| C=CC1C[C@]1(NC(=O)[C@@H]1C[C@@H](OC(=O)Nc2ccccn2)CN1C(=O)[C@@H](NC(=O)OC(C)(C)C)C(C)(C)C)C(=O)NS(=O)(=O)C1CC1 (stereo partly drawn) [Compound 75, BocNH-P3(t-BuGly)-P2(Hyp(O—CO(NH—(pyridin-2-yl))))-P1(1R,2S VinylAcca)—CONHSO2Cyclopropane] | 0.1 to 1 µM | > 10 µM |
| C=CC1C[C@]1(NC(=O)[C@@H]1C[C@@H](OC(=O)Nc2cc(OC)ccc2-n2cccn2)CN1C(=O)[C@@H](NC(=O)OC(C)(C)C)C(C)(C)C)C(=O)NS(=O)(=O)C1CC1 (stereo partly drawn) [Compound 95, BocNH-P3(t-BuGly)-P2(Hyp(O—CO(NH—(5-Methoxy-2-pyrazol-1-yl-phenyl))))-P1(1R,2S VinylAcca)—CONHSO2Cyclopropane] | < 0.1 µM | 0.1 to 1 µM |
| C=CC1C[C@]1(NC(=O)[C@@H]1C[C@@H](OC(=O)Nc2ccccc2C(=O)O)CN1C(=O)[C@@H](NC(=O)OC(C)(C)C)C(C)(C)C)C(=O)NS(=O)(=O)C1CC1 (stereo partly drawn) [Compound 69, BocNH-P3(t-BuGly)-P2(Hyp(O—CO(NH—(2-benzoic acid))))-P1(1R,2S VinylAcca)—CONHSO2Cyclopropane] | 0.1 to 1 µM | > 10 µM |
| C=CC1C[C@]1(NC(=O)[C@@H]1C[C@@H](OC(=O)Nc2cc(C(C)=O)ccc2N2CCC(C(=O)OCC)CC2)CN1C(=O)[C@@H](NC(=O)OC(C)(C)C)C(C)(C)C)C(=O)NS(=O)(=O)C1CC1 (stereo partly drawn) [Compound 76, BocNH-P3(t-BuGly)-P2(Hyp(O—CO(NH-2-(1-(4-acetyl-phenyl))-piperidine-4-carboxylic acid ethyl ester)))-P1(1R,2S VinylAcca)—CONHSO2Cyclopropane] | < 0.1 µM | 0.1 to 1 µM |
| C=CC1C[C@]1(NC(=O)[C@@H]1C[C@@H](OC(=O)N(C)c2ccccc2)CN1C(=O)[C@@H](NC(=O)OC(C)(C)C)C(C)(C)C)C(=O)NS(=O)(=O)C1CC1 (stereo partly drawn) [Compound 1, BocNH-P3(t-BuGly)-P2(Hyp(O—CO(N-methyl,N-phenyl)))-P1(1R,2S VinylAcca)—CONHSO2Cyclopropane] | 0.1 to 1 µM | 1 to 10 µM |
| C=CC1C[C@]1(NC(=O)[C@@H]1C[C@@H](OC(=O)N[C@H](C(=O)OC)[C@@H](C)CC)CN1C(=O)[C@@H](NC(=O)OC(C)(C)C)C(C)(C)C)C(=O)NS(=O)(=O)C1CC1 (stereo partly drawn) [Compound 12, BocNH-P3(t-BuGly)-P2(Hyp(O—CO(NH-2-[(2S,3S)-3-methylvaleric acid methyl ester])))-P1(1R,2S VinylAcca)—CONHSO2Cyclopropane] | 1 to 10 µM | > 10 µM |
| C=CC1C[C@]1(NC(=O)[C@@H]1C[C@@H](OC(=O)Nc2ccccc2C(C)(C)C)CN1C(=O)[C@@H](NC(=O)OC(C)(C)C)C(C)(C)C)C(=O)NS(=O)(=O)C1CC1 (stereo partly drawn) [Compound 17, BocNH-P3(t-BuGly)-P2(Hyp(O—CO(NH—(2-tert-butyl-phenyl))))-P1(1R,2S VinylAcca)—CONHSO2Cyclopropane] | 0.1 to 1 µM | 1 to 10 µM |
| C=CC1C[C@]1(NC(=O)[C@@H]1C[C@@H](OC(=O)Nc2ccccc2Cl)CN1C(=O)[C@@H](NC(=O)OC(C)(C)C)C(C)(C)C)C(=O)NS(=O)(=O)C1CC1 (stereo partly drawn) [Compound 53, BocNH-P3(t-BuGly)-P2(Hyp(O—CO(NH—(2-chloro-phenyl))))-P1(1R,2S VinylAcca)—CONHSO2Cyclopropane] | < 0.1 µM | 1 to 10 µM |
| C=CC1C[C@]1(NC(=O)[C@@H]1C[C@@H](OC(=O)Nc2cc(C)ccc2-c2nccs2)CN1C(=O)[C@@H](NC(=O)OC(C)(C)C)C(C)(C)C)C(=O)NS(=O)(=O)C1CC1 (stereo partly drawn) [Compound 94, BocNH-P3(t-BuGly)-P2(Hyp(O—CO(NH—(5-Methyl-2-thiazol-2-yl-phenyl))))-P1(1R,2S VinylAcca)—CONHSO2Cyclopropane] | < 0.1 µM | < 0.1 µM |
| C=CC1C[C@]1(NC(=O)[C@@H]1C[C@@H](OC(=O)Nc2ccccc2C(=O)OCCCC)CN1C(=O)[C@@H](NC(=O)OC(C)(C)C)C(C)(C)C)C(=O)NS(=O)(=O)C1CC1 (stereo partly drawn) [Compound 64, BocNH-P3(t-BuGly)-P2(Hyp(O—CO(NH—(2-benzoic acid butyl ester))))-P1(1R,2S VinylAcca)—CONHSO2Cyclopropane] | < 0.1 µM | 0.1 to 1 µM |
| C=CC1C[C@]1(NC(=O)[C@@H]1C[C@@H](OC(=O)Nc2ncccc2C(=O)OCC)CN1C(=O)[C@@H](NC(=O)OC(C)(C)C)C(C)(C)C)C(=O)NS(=O)(=O)C1CC1 (stereo partly drawn) [Compound 72, BocNH-P3(t-BuGly)-P2(Hyp(O—CO(NH-2-(nicotinic acid ethyl ester))))-P1(1R,2S VinylAcca)—CONHSO2Cyclopropane] | < 0.1 µM | 1 to 10 µM |
